In patent US20250381165A1, “Method of Use for Benzofuran Compounds” (Tampa Bay Research Institute, Inc., priority 2024, published 2025):

What was measured:
[1] = test system: SIINFEKL specific CD8+ T cells; experiment: Immunization with BzFβ/SIINFEKL treated DC2.4 cells; format: in vivo, C57BL/6crl mice; details: mice immunized sc with 1.2×10^6 DC2.4 treated with 50 μg/mL BzFβ then 1 μg/mL SIINFEKL; prime and boost
Description: DC2.4 cells that had been matured by an overnight treatment with 20 ng/mL murine IFNγ (He, et al., Interferon gamma stimulates cellular maturation of dendritic cell line DC2.4 leading to induction of efficient cytotoxic T cell responses and antitumor immunity. Cell Mol Immunol. 2007; 4(2):105-11) were treated with 30 μg/mL mitomycin C to block replication and were then pulsed for 1 h with 1 μg/mL SIINFEKL peptide (Group 2), or with 50 μg/mL BzFβ for 1 h and then with 1 μg/mL SIINFEKL peptide for 1 h (Group 3).
Female C57BL/6crl mice were separated into 3 groups with 6 mice per group. The mice in Group 1 served as the naïve, no treatment group, Group 2 treated with by subcutaneous injection of 1.2×10^6 DC2.4 cells primed with IFNγ, mitomycin C and SIINFEKL, and Group 3 treated by subcutaneous injection of 1.2×10^6 DC2.4 cells primed with BzFβ and SIINFEKL as outlined above. […] Fourteen days later, the number of MHC class I/SIINFEKL tetramer positive CD8+ cells in the peripheral blood and spleen were determined.
On day 21 (14 days after the last immunization) blood was collected from the retro-orbital plexus. […] The number of CD19 negative^−/CD8 positive/SIINFEKL tetramer positive cells was determined by flow cytometric analysis following collection of positive events detected in the lymphocyte gate. […]

[2] = test system: B16F10 cells (B3Z activation); experiment: B3Z activation by B16F10 (OVA or SIINFEKL); format: cell-based, murine
Description: B16F10 were plated at a density of 2.5 or 5×10^4 cells/well (100 μL/well in 96 well plates) and cultured overnight in cDMEM. The cells were washed with DPBS and then treated for 1-24 h with the indicated concentrations of BzFβ or co-treated with the indicated concentrations of BzFβ and 1.0 mg/mL OVA, suspended in complete media. Cells treated with BzFβ only were pulsed with 2 nM SIINFEKL pulsed for 1 h. The cells were then co-cultured with equal number of B3Z cells at 37° C. for 19 h.
In this experiment the activity of the dipeptide, GL, was also examined, as it has been previously reported to function as a peptide exchange factor. (Saini, et al., Dipeptides catalyze rapid peptide exchange on MHC class I molecules. Proc Natl Acad Sci USA. 2015 Jan. 6; 112(1):202-7; Saini, et al., Empty peptide-receptive MHC class I molecules for efficient detection of antigen-specific T cells. Sci Immunol. 2019 Jul. 19; 4(37):eaau9039). B16F10 were plated at a density of 2.5 or 5×10^4 cells/well (100 μL/well in 96 well plates) and cultured overnight in cDMEM. The cells were washed with DPBS and then co-treated for 24 h with 10 mM (1.88 mg/mL) of GL and 1.0 mg/mL OVA or were pulsed with 2 nM SIINFEKL for 1 h following treatment with 10 mM GL in complete media. The cells were then co-cultured with an equal number of B3Z cells at 37° C. for 19 h.

Compound: O=C(O)/C=C/c1ccc2occc2c1 [BzFβ, (2E)-3-(1-benzofuran-5-yl)prop-2-enoic acid]
- SIINFEKL-specific CD8+ T cell response [1]: enhanced SIINFEKL-specific CD8+ T cell response
- B3Z activation by B16F10, OVA ([2]; co-treatment with 1 mg/mL OVA, GL at 10 mM): failed to activate the B3Z cells
- B3Z activation by B16F10, SIINFEKL ([2]; pre-treatment, 1 h pulse 2 nM SIINFEKL, BzFβ 25, 50 μg, GL 10 mM): significantly activate B3Z
